Laboratory results as given in PubChem BioAssay AID330 (DTP/NCI, 2004).
“And” between values parts separate entries of the source, which are not always exact repeats. Equal values may be shown once. Inconclusive results and toxic doses are left out. Rule for the calls: active = survival T/C of 150% or more; inactive = T/C below 125% in these data.

Tested on: P388 leukemia ip, CD2F1 mice, survival T/C
Test: NCI In Vivo Anticancer Drug Screen. Data for tumor model P388 Leukemia (intraperitoneal) in CD2F1 (CDF1) mice
Details: endpoint: median survival time, higher = longer survival
In short: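 Mice carrying the transplanted tumor received test compound or vehicle. Survival was recorded in each group, and the value is the treated-group measurement divided by that of the vehicle-treated control group.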

[1] = dose: 120.0 mg/kg/injection, schedule: Q01DX005 (ip), vehicle: Klucel (hydroxypropylcellulose) (HPC)
[2] = dose: 240.0 mg/kg/injection, schedule: Q01DX005 (ip), vehicle: Klucel (hydroxypropylcellulose) (HPC)
[3] = dose: 3.13 mg/kg/injection, schedule: Q01DX009 (ip), vehicle: other
[4] = dose: 6.25 mg/kg/injection, schedule: Q01DX009 (ip), vehicle: other
[5] = dose: 12.5 mg/kg/injection, schedule: Q01DX009 (ip), vehicle: other
[6] = dose: 25.0 mg/kg/injection, schedule: Q01DX009 (ip), vehicle: other
[7] = dose: 50.0 mg/kg/injection, schedule: Q01DX009 (ip), vehicle: other
[8] = dose: 50.0 mg/kg/injection, schedule: Q01DX009 (ip), vehicle: saline with Tween-80
[9] = dose: 100.0 mg/kg/injection, schedule: Q01DX009 (ip), vehicle: saline with Tween-80
[10] = dose: 200.0 mg/kg/injection, schedule: Q01DX009 (ip), vehicle: saline with Tween-80
[11] = dose: 400.0 mg/kg/injection, schedule: Q01DX009 (ip), vehicle: saline with Tween-80
[12] = dose: 100.0 mg/kg/injection, schedule: Q04DX003 (ip), vehicle: Klucel (hydroxypropylcellulose) (HPC)
[13] = dose: 200.0 mg/kg/injection, schedule: Q04DX003 (ip), vehicle: Klucel (hydroxypropylcellulose) (HPC)
[14] = dose: 400.0 mg/kg/injection, schedule: Q04DX003 (ip), vehicle: Klucel (hydroxypropylcellulose) (HPC)
[15] = dose: 12.5 mg/kg/injection, schedule: Q01DX005 (ip), vehicle: Klucel (hydroxypropylcellulose) (HPC)
[16] = dose: 50.0 mg/kg/injection, schedule: Q01DX005 (ip), vehicle: Klucel (hydroxypropylcellulose) (HPC)
[17] = dose: 50.0 mg/kg/injection, schedule: Q01DX005 (ip), vehicle: saline with Tween-80
[18] = dose: 100.0 mg/kg/injection, schedule: Q01DX005 (ip), vehicle: saline with Tween-80
[19] = dose: 200.0 mg/kg/injection, schedule: Q01DX005 (ip), vehicle: saline with Tween-80
[20] = dose: 60.0 mg/kg/injection, schedule: Q01DX005 (ip), vehicle: saline with Tween-80
[21] = dose: 120.0 mg/kg/injection, schedule: Q01DX005 (ip), vehicle: saline with Tween-80
[22] = dose: 240.0 mg/kg/injection, schedule: Q01DX005 (ip), vehicle: saline with Tween-80
[23] = dose: 100.0 mg/kg/injection, schedule: Q01DX005 (ip), vehicle: Klucel (hydroxypropylcellulose) (HPC)
[24] = dose: 200.0 mg/kg/injection, schedule: Q01DX005 (ip), vehicle: Klucel (hydroxypropylcellulose) (HPC)
[25] = dose: 100.0 mg/kg/injection, schedule: Q01DX009 (ip), vehicle: saline

Measured: T/C

O=C/C(=C\O)NC(=O)c1ccccc1C(=O)O
inactive: dose: 60.0 mg/kg/injection, schedule: Q01DX005 (ip), vehicle: Klucel (hydroxypropylcellulose) (HPC) 99 % of control | [1] 99 % of control | [2] 92 % of control

O=C1OC(C2OC(=O)C(=O)C2C(=O)c2ccccc2Cl)C(C(=O)c2ccccc2Cl)C1=O (stereo unspecified)
inactive: dose: 15.0 mg/kg/injection, schedule: Q01DX005 (ip), vehicle: saline + Tween-80 + alcohol 99 % of control | dose: 30.0 mg/kg/injection, schedule: Q01DX005 (ip), vehicle: saline + Tween-80 + alcohol 91 % of control

Oc1ccc(C2c3ccccc3Oc3ccccc32)c2ccccc12
inactive: dose: 100.0 mg/kg/injection, schedule: Q01DX001 (ip), vehicle: gum acacia 93 % of control | dose: 200.0 mg/kg/injection, schedule: Q01DX001 (ip), vehicle: gum acacia 105 % of control | dose: 400.0 mg/kg/injection, schedule: Q01DX001 (ip), vehicle: gum acacia 101 % of control

COc1cc2ccc(/C=C\[N+](=O)[O-])cc2cc1OC
inactive: [3] 105 % of control | [4] 108 % of control | [5] 107 % of control | [6] 108 % of control

c1ccc2[nH]c(N=Nc3cccc4ccccc34)cc2c1
inactive: [6] 93 % of control and 95 % of control | [7] 100 % of control | [8] 99 % of control | dose: 100.0 mg/kg/injection, schedule: Q01DX009 (ip), vehicle: other 100 % of control and 94 % of control | [9] 108 % of control and 115 % of control | dose: 200.0 mg/kg/injection, schedule: Q01DX009 (ip), vehicle: other 98 % of control and 100 % of control | [10] 115 % of control | [11] 98 % of control

N#CC1=C(Nc2ccccc2Cl)SC(c2ccncc2)NC1=O (stereo unspecified)
inactive: [1] 111 % of control | [2] 105 % of control

CN1CC(=O)N=C1N
inactive: [12] 100 % of control | [13] 100 % of control | [14] 105 % of control

O=C(/C=C/c1ccc(OCc2ccccc2)cc1)c1ccccc1Cl
inactive: [8] 110 % of control and 95 % of control | [9] 110 % of control and 91 % of control | [10] 100 % of control | [11] 100 % of control

CCN(CC)c1ccc2nc3ccc(=[N+](CC)CC)cc-3oc2c1
inactive: dose: 7.5 mg/kg/injection, schedule: Q01DX005 (ip), vehicle: saline 105 % of control | dose: 15.0 mg/kg/injection, schedule: Q01DX005 (ip), vehicle: saline 109 % of control

N=C(N)c1ccc(N=Nc2c(O)ccc3cc(O)ccc23)cc1
inactive: dose: 3.12 mg/kg/injection, schedule: Q01DX005 (ip), vehicle: Klucel (hydroxypropylcellulose) (HPC) 104 % of control | dose: 6.25 mg/kg/injection, schedule: Q01DX005 (ip), vehicle: Klucel (hydroxypropylcellulose) (HPC) 101 % of control and 102 % of control | [15] 116 % of control (2×) and 95 % of control

C1CC2CC1CC2CNCC1CC2CCC1C2 (stereo unspecified)
inactive: [15] 103 % of control | dose: 25.0 mg/kg/injection, schedule: Q01DX005 (ip), vehicle: Klucel (hydroxypropylcellulose) (HPC) 103 % of control | [16] 98 % of control and 101 % of control

CCCCN(CCCC)CC(O)c1ccc(OC)c2ccccc12 (stereo unspecified)
inactive: [17] 102 % of control | [18] 107 % of control | [19] 98 % of control

CCOc1ccc(N2C(=O)C(=O)C(C#N)(c3nc4ccccc4o3)C(=O)C2=O)cc1
inactive: [20] 98 % of control | [21] 104 % of control | [22] 105 % of control

Nc1ccc2c(c1)Oc1ccc(N)cc1O2
inactive: [20] 102 % of control | [21] 100 % of control | [22] 106 % of control

COc1cc(NCCN(C)C(C)Cc2ccccc2)c2ncccc2c1 (stereo unspecified)
inactive: dose: 50.0 mg/kg/injection, schedule: Q01DX005 (ip), vehicle: saline 106 % of control | dose: 100.0 mg/kg/injection, schedule: Q01DX005 (ip), vehicle: saline 104 % of control

Cc1nc2ccc(Br)cc2c(=O)n1-c1ccc(-c2n[nH]c(=S)n2-c2ccccc2)cc1
inactive: [16] 102 % of control | [23] 104 % of control | [24] 104 % of control

CCOC(=O)CC1CC(C)(C(=O)OCC)C(=O)CC1=O (stereo unspecified)
inactive: [17] 102 % of control | [18] 104 % of control | [19] 95 % of control

O=[N+]1C=CC=CC1=C1C=CC=CN1[O-]
inactive: [17] 104 % of control | [18] 110 % of control | [19] 103 % of control

C/C(=C\C1C/C(=C/CCc2ccoc2)C(=O)O1)CCCc1ccoc1 (stereo unspecified)
inactive: dose: 25.0 mg/kg/injection, schedule: Q01DX009 (ip), vehicle: saline + alcohol 100 % of control | dose: 50.0 mg/kg/injection, schedule: Q01DX009 (ip), vehicle: saline + alcohol 107 % of control

N#C/C=C1/C=CC(O)CC1OC1OC(CO)C(O)C(O)C1O (stereo unspecified)
inactive: dose: 3.0 mg/kg/injection, schedule: Q01DX009 (ip), vehicle: saline 102 % of control | dose: 6.0 mg/kg/injection, schedule: Q01DX009 (ip), vehicle: saline 101 % of control | dose: 12.0 mg/kg/injection, schedule: Q01DX009 (ip), vehicle: saline 102 % of control | dose: 24.0 mg/kg/injection, schedule: Q01DX009 (ip), vehicle: saline 104 % of control

CNNS(=O)(=O)CC(O)C(Cl)(Cl)Cl (stereo unspecified)
inactive: dose: 50.0 mg/kg/injection, schedule: Q01DX009 (ip), vehicle: saline 106 % of control | [25] 101 % of control

CN(C)CCC(=O)c1ccc([N+](=O)[O-])cc1
inactive: dose: 25.0 mg/kg/injection, schedule: Q01DX009 (ip), vehicle: saline with Tween-80 94 % of control | [8] 113 % of control | [9] 108 % of control | [10] 106 % of control

CCC(C)C1C(=O)OC(C(Cl)(Cl)Cl)N1Cc1ccc(OC)cc1OC (stereo unspecified)
inactive: [12] 109 % of control | [13] 107 % of control | [14] 104 % of control

NC(=O)CCCNC(=O)CCC[c-]1[c-][c-][c-][c-]1.[Fe].[c-]1[c-][c-][cH-][c-]1
inactive: [3] 102 % of control | [4] 102 % of control | [5] 99 % of control and 96 % of control | [6] 123 % of control | [7] 111 % of control and 118 % of control

CC(=O)C1(C)CC=CCC1C(=O)O (stereo unspecified)
inactive: [25] 100 % of control | dose: 200.0 mg/kg/injection, schedule: Q01DX009 (ip), vehicle: saline 100 % of control | dose: 400.0 mg/kg/injection, schedule: Q01DX009 (ip), vehicle: saline 100 % of control

N#CSCc1ccccc1Cl
inactive: dose: 2.5 mg/kg/injection, schedule: Q01DX009 (ip), vehicle: saline with Tween-80 104 % of control | dose: 5.0 mg/kg/injection, schedule: Q01DX009 (ip), vehicle: saline with Tween-80 104 % of control | dose: 10.0 mg/kg/injection, schedule: Q01DX009 (ip), vehicle: saline with Tween-80 90 % of control

O=C1NC(=O)C2C3C=CC(C12)C1C2CCOC2C31 (stereo unspecified)
inactive: [17] 104 % of control | [18] 100 % of control | [19] 99 % of control

O=C(NCc1ccco1)Nc1ccccc1[N+](=O)[O-]
inactive: [16] 96 % of control | [23] 95 % of control | [24] 95 % of control

O=C(S)CC1(O)CCCCC1
inactive: [12] 99 % of control | [13] 100 % of control | [14] 96 % of control

Cc1cc([N+](=O)[O-])cc(Cl)n1
inactive: dose: 3.12 mg/kg/injection, schedule: Q01DX009 (ip), vehicle: Klucel (hydroxypropylcellulose) (HPC) 106 % of control | dose: 6.25 mg/kg/injection, schedule: Q01DX009 (ip), vehicle: Klucel (hydroxypropylcellulose) (HPC) 99 % of control | dose: 12.5 mg/kg/injection, schedule: Q01DX009 (ip), vehicle: Klucel (hydroxypropylcellulose) (HPC) 100 % of control | dose: 25.0 mg/kg/injection, schedule: Q01DX009 (ip), vehicle: Klucel (hydroxypropylcellulose) (HPC) 106 % of control
